Measurements taken from PubChem BioAssay AID1963967 (Molecular Pharmacology Branch, DTP, NCI, 2024).

Test system: 855422-203-R-J1-PDC spheroids with HUVEC/MSC, viability
Experiment: Anticancer human tumor 855422-203-R-J1-PDC patient-derived bladder carcinoma cell line growth inhibition [PI3K]
Conditions: for IC50: curve of first compound; for viability, T/C: stronger effect = lower value
Procedure, shortened: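 Tumor cells were combined with HUVEC and MSCs into spheroids, then dosed with PI3K-inhibitor combinations over half-log ranges capped near clinical Cmax or 10 microM.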

[1] = second compound 0.0316 µM, first compound 0.0316 µM
[2] = second compound 0.0316 µM, first compound 0.1 µM
[3] = second compound 0.0316 µM, first compound 0.316 µM
[4] = second compound 0.0316 µM, first compound 1 µM
[5] = second compound 0.0316 µM, first compound 3.16 µM
[6] = second compound 0.0316 µM, first compound 10 µM
[7] = second compound 0.1 µM, first compound 0.0316 µM
[8] = second compound 0.1 µM, first compound 0.1 µM
[9] = second compound 0.1 µM, first compound 0.316 µM
[10] = second compound 0.1 µM, first compound 1 µM
[11] = second compound 0.1 µM, first compound 3.16 µM
[12] = second compound 0.1 µM, first compound 10 µM
[13] = second compound 0.316 µM, first compound 0.0316 µM
[14] = second compound 0.316 µM, first compound 0.1 µM
[15] = second compound 0.316 µM, first compound 0.316 µM
[16] = second compound 0.316 µM, first compound 1 µM
[17] = second compound 0.316 µM, first compound 3.16 µM
[18] = second compound 0.316 µM, first compound 10 µM
[19] = second compound 1 µM, first compound 0.0316 µM
[20] = second compound 1 µM, first compound 0.1 µM
[21] = second compound 1 µM, first compound 0.316 µM
[22] = second compound 1 µM, first compound 1 µM
[23] = second compound 1 µM, first compound 3.16 µM
[24] = second compound 1 µM, first compound 10 µM
[25] = second compound 3.16 µM, first compound 0.0316 µM
[26] = second compound 3.16 µM, first compound 0.1 µM
[27] = second compound 3.16 µM, first compound 0.316 µM
[28] = second compound 3.16 µM, first compound 1 µM
[29] = second compound 3.16 µM, first compound 3.16 µM
[30] = second compound 3.16 µM, first compound 10 µM
[31] = second compound 10 µM, first compound 0.0316 µM
[32] = second compound 10 µM, first compound 0.1 µM
[33] = second compound 10 µM, first compound 0.316 µM
[34] = second compound 10 µM, first compound 1 µM
[35] = second compound 10 µM, first compound 3.16 µM
[36] = second compound 10 µM, first compound 10 µM
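Also: agents incubated with spheroids for one week before read-out.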
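For viability, T/C in this document: 100% = DMSO vehicle-treated control wells.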

## C=CC(=O)N1CCN(c2nc(=O)n(-c3c(C)ccnc3C(C)C)c3nc(-c4c(O)cccc4F)c(F)cc23)C(C)C1 (centres undefined) + Cc1nc(NC(=O)N2CCCC2C(N)=O)sc1-c1ccnc(C(C)(C)C(F)(F)F)c1
Second compound 0.0316 µM
  IC50: > 10 µM
Second compound 0.1 µM
  IC50: > 10 µM
Second compound 0.316 µM
  IC50: > 10 µM
Second compound 1 µM
  IC50: > 10 µM
Second compound 3.16 µM
  IC50: < 0.0316 µM
Second compound 10 µM
  IC50: < 0.0316 µM
[1]
  viability, T/C: 111%
[2]
  viability, T/C: 87.8%
[3]
  viability, T/C: 119%
[4]
  viability, T/C: 104%
[5]
  viability, T/C: 109%
[6]
  viability, T/C: 128%
[7]
  viability, T/C: 108%
[8]
  viability, T/C: 86.8%
[9]
  viability, T/C: 106%
[10]
  viability, T/C: 103%
[11]
  viability, T/C: 117%
[12]
  viability, T/C: 114%
[13]
  viability, T/C: 94.7%
[14]
  viability, T/C: 87.3%
[15]
  viability, T/C: 104%
[16]
  viability, T/C: 99.5%
[17]
  viability, T/C: 117%
[18]
  viability, T/C: 109%
[19]
  viability, T/C: 75.9%
[20]
  viability, T/C: 76.1%
[21]
  viability, T/C: 82.6%
[22]
  viability, T/C: 92.5%
[23]
  viability, T/C: 101%
[24]
  viability, T/C: 97.4%
[25]
  viability, T/C: 50.6%
[26]
  viability, T/C: 50.9%
[27]
  viability, T/C: 58.5%
[28]
  viability, T/C: 64%
[29]
  viability, T/C: 80.4%
[30]
  viability, T/C: 67.9%
[31]
  viability, T/C: 26.9%
[32]
  viability, T/C: 27.1%
[33]
  viability, T/C: 31.5%
[34]
  viability, T/C: 37.2%
[35]
  viability, T/C: 41.2%
[36]
  viability, T/C: 34.2%

## CC(Cn1ccc(-c2ccc(C#N)c(Cl)c2)n1)NC(=O)c1cc(C(C)O)[nH]n1 (centres undefined) + Cc1nc(NC(=O)N2CCCC2C(N)=O)sc1-c1ccnc(C(C)(C)C(F)(F)F)c1
Second compound 0.0316 µM
  IC50: > 10 µM
Second compound 0.1 µM
  IC50: > 10 µM
Second compound 0.316 µM
  IC50: > 10 µM
Second compound 1 µM
  IC50: > 10 µM
Second compound 3.16 µM
  IC50: < 0.0316 µM
Second compound 10 µM
  IC50: < 0.0316 µM
[1]
  viability, T/C: 110%
[2]
  viability, T/C: 87.1%
[3]
  viability, T/C: 114%
[4]
  viability, T/C: 102%
[5]
  viability, T/C: 102%
[6]
  viability, T/C: 87.5%
[7]
  viability, T/C: 104%
[8]
  viability, T/C: 94.6%
[9]
  viability, T/C: 105%
[10]
  viability, T/C: 91.6%
[11]
  viability, T/C: 98.5%
[12]
  viability, T/C: 89.2%
[13]
  viability, T/C: 91.2%
[14]
  viability, T/C: 88.2%
[15]
  viability, T/C: 94.4%
[16]
  viability, T/C: 89.6%
[17]
  viability, T/C: 98.1%
[18]
  viability, T/C: 86.7%
[19]
  viability, T/C: 71.7%
[20]
  viability, T/C: 76.7%
[21]
  viability, T/C: 73.9%
[22]
  viability, T/C: 77.8%
[23]
  viability, T/C: 81.3%
[24]
  viability, T/C: 62.3%
[25]
  viability, T/C: 44.9%
[26]
  viability, T/C: 45%
[27]
  viability, T/C: 48.5%
[28]
  viability, T/C: 46.5%
[29]
  viability, T/C: 49.9%
[30]
  viability, T/C: 37%
[31]
  viability, T/C: 24.4%
[32]
  viability, T/C: 22.5%
[33]
  viability, T/C: 22%
[34]
  viability, T/C: 26.9%
[35]
  viability, T/C: 28%
[36]
  viability, T/C: 17.4%
